Measurements as given in the supplement of paper PMC10307832.

Assays:
Test in all cases: relative viability (nuclei count vs DMSO), 5 days (fraction); higher = more cells survive
BX 795 + Pemetrexed = compound: O=C(NCCCNc1nc(Nc2cccc(NC(=O)N3CCCC3)c2)ncc1I)c1cccs1 [BX 795] + Nc1nc2[nH]cc(CCc3ccc(C(=O)N[C@@H](CCC(=O)O)C(=O)O)cc3)c2c(=O)[nH]1 [Pemetrexed] (partner 0.2 µM)
In short: (§1)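 Lung cancer cell lines, seeded in 1536-well plates, were treated the following day by pin tool with a single drug or with five library-drug doses (not always all listed) in √10 steps on top of a fixed anchor-drug dose. Cells were fixed and nuclei stained in one step after 5 days, and nuclei were counted. Relative viability is the nuclei count for treated wells divided by that for vehicle wells, reported as medians of duplicate plates.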

BX 795 + Pictilisib = compound: O=C(NCCCNc1nc(Nc2cccc(NC(=O)N3CCCC3)c2)ncc1I)c1cccs1 [BX 795] + CS(=O)(=O)N1CCN(Cc2cc3nc(-c4cccc5[nH]ncc45)nc(N4CCOCC4)c3s2)CC1 [Pictilisib] (partner 1 µM)
In short: as §1

BX 795 + Bortezomib = compound: O=C(NCCCNc1nc(Nc2cccc(NC(=O)N3CCCC3)c2)ncc1I)c1cccs1 [BX 795] + CC(C)C[C@H](NC(=O)[C@H](Cc1ccccc1)NC(=O)c1cnccn1)B(O)O [Bortezomib] (partner 0.002 µM)
In short: as §1

BX 795 + Olaparib = compound: O=C(NCCCNc1nc(Nc2cccc(NC(=O)N3CCCC3)c2)ncc1I)c1cccs1 [BX 795] + O=C(c1cc(Cc2n[nH]c(=O)c3ccccc23)ccc1F)N1CCN(C(=O)C2CC2)CC1 [Olaparib] (partner 8 µM)
In short: as §1

BX 795 + Palbociclib = compound: O=C(NCCCNc1nc(Nc2cccc(NC(=O)N3CCCC3)c2)ncc1I)c1cccs1 [BX 795] + CC(=O)c1c(C)c2cnc(Nc3ccc(N4CCNCC4)cn3)nc2n(C2CCCC2)c1=O [Palbociclib] (partner 0.5 µM)
In short: as §1

Row | Cell Line | relative viability (BX 795 + Pemetrexed; first compound 0.04 µM) | relative viability (BX 795 + Pemetrexed; first compound 0.1265 µM) | relative viability (BX 795 + Pemetrexed; first compound 0.4 µM) | relative viability (BX 795 + Pemetrexed; first compound 1.265 µM) | relative viability (BX 795 + Pictilisib; first compound 0.04 µM) | relative viability (BX 795 + Pictilisib; first compound 0.1265 µM) | relative viability (BX 795 + Pictilisib; first compound 0.4 µM) | relative viability (BX 795 + Pictilisib; first compound 1.265 µM) | relative viability (BX 795 + Bortezomib; first compound 0.04 µM) | relative viability (BX 795 + Bortezomib; first compound 0.1265 µM) | relative viability (BX 795 + Bortezomib; first compound 0.4 µM) | relative viability (BX 795 + Bortezomib; first compound 1.265 µM) | relative viability (BX 795 + Olaparib; first compound 0.04 µM) | relative viability (BX 795 + Olaparib; first compound 0.1265 µM) | relative viability (BX 795 + Olaparib; first compound 0.4 µM) | relative viability (BX 795 + Olaparib; first compound 1.265 µM) | relative viability (BX 795 + Palbociclib; first compound 0.04 µM) | relative viability (BX 795 + Palbociclib; first compound 0.1265 µM) | relative viability (BX 795 + Palbociclib; first compound 0.4 µM) | relative viability (BX 795 + Palbociclib; first compound 1.265 µM)
1 | HCC-366 | 0.104 | 0.168 | 0.0915 | 0.149 | 0.145 | 0.137 | 0.104 | 0.0928 | 1.08 | 1.1 | 0.866 | 1.09 | 0.336 | 0.404 | 0.175 | 0.252 | 0.477 | 0.362 | 0.289 | 0.415
2 | HCC-827 | 0.266 | 0.288 | 0.245 | 0.241 | 1.13 | 1.02 | 1.12 | 0.961 | 1.01 | 1.01 | 1.06 | 0.986 | 0.448 | 0.621 | 0.525 | 0.639 | 0.551 | 0.501 | 0.478 | 0.484
3 | HOP-62 | 0.303 | 0.284 | 0.296 | 0.306 | 0.803 | 0.586 | 0.682 | 0.66 | 0.51 | 0.59 | 0.615 | 0.682 | 0.419 | 0.265 | 0.266 | 0.605 | 0.471 | 0.465 | 0.502 | 0.47
4 | IA-LM | – | – | – | – | 0.367 | 0.311 | 0.531 | 0.332 | 0.655 | 0.841 | 0.974 | 0.54 | 0.783 | 0.797 | 0.768 | 0.757 | – | – | – | –
5 | LC-2-ad | 0.267 | 0.288 | 0.25 | 0.263 | 0.471 | 0.387 | 0.333 | 0.202 | 1.11 | 1.01 | 1.06 | 0.968 | 0.756 | 0.456 | 0.685 | 0.608 | 0.476 | 0.493 | 0.408 | 0.483
6 | LCLC-97TM1 | 0.152 | 0.184 | 0.177 | 0.184 | 0.186 | 0.163 | 0.206 | 0.137 | 0.563 | 0.527 | 0.954 | 0.417 | 0.507 | 0.404 | 0.409 | 0.266 | 0.22 | 0.201 | 0.314 | 0.208
7 | LK-2 | 0.277 | 0.237 | 0.269 | 0.24 | 0.622 | 0.556 | 0.47 | 0.557 | – | – | – | – | 0.769 | 0.883 | 0.739 | 0.641 | 0.83 | 0.862 | 0.635 | 0.559
8 | NCI-H358 | 0.167 | 0.168 | 0.134 | 0.123 | 0.387 | 0.251 | 0.327 | 0.245 | – | – | – | – | 0.724 | 0.709 | 0.486 | 0.368 | 0.132 | 0.134 | 0.131 | 0.107
9 | NCI-H522 | 1.13 | 1.16 | 1.08 | 1.02 | – | – | – | – | – | – | – | – | 0.616 | 0.586 | 0.692 | 0.658 | 0.958 | 0.969 | 0.943 | 0.982
10 | NCI-H596 | 0.464 | 0.476 | 0.456 | 0.527 | 0.449 | 0.38 | 0.417 | 0.431 | 0.947 | 0.875 | 0.999 | 1.08 | 0.729 | 0.673 | 0.632 | 0.766 | – | – | – | –
11 | NCI-H727 | – | – | – | – | 0.498 | 0.643 | 0.31 | 0.315 | 1.05 | 0.962 | 0.926 | 0.739 | 0.725 | 0.72 | 1.02 | 0.685 | 0.634 | 0.61 | 0.67 | 0.696
12 | NCI-H1395 | 0.675 | 0.872 | 0.407 | 0.626 | 0.673 | 0.562 | 0.461 | 0.533 | – | – | – | – | 0.452 | 0.468 | 0.449 | 0.501 | 0.627 | 0.612 | 0.426 | 0.498
13 | NCI-H1563 | 0.977 | 0.759 | 0.857 | 0.746 | 0.689 | 0.522 | 0.659 | 0.673 | 0.822 | 0.844 | 0.993 | 0.752 | – | – | – | – | – | – | – | –
14 | NCI-H1793 | 0.872 | 0.628 | 0.856 | 0.711 | 0.399 | 0.333 | 0.333 | 0.257 | – | – | – | – | 0.972 | 0.856 | 0.928 | 0.804 | 0.386 | 0.246 | 0.384 | 0.296
15 | NCI-H1944 | 0.616 | 0.577 | 0.41 | 0.606 | 0.376 | 0.329 | 0.367 | 0.363 | – | – | – | – | 0.476 | 0.403 | 0.542 | 0.403 | 0.381 | 0.33 | 0.411 | 0.325
16 | NCI-H2170 | 0.271 | 0.286 | 0.243 | 0.249 | 0.3 | 0.283 | 0.283 | 0.249 | – | – | – | – | 0.597 | 0.681 | 0.538 | 0.487 | 0.364 | 0.395 | 0.394 | 0.381
17 | NCI-H2342 | 0.782 | 0.718 | 0.758 | 0.715 | – | – | – | – | – | – | – | – | 0.497 | 0.448 | 0.479 | 0.357 | 0.599 | 0.518 | 0.47 | 0.498
18 | SK-MES-1 | 0.923 | 0.854 | 0.612 | 0.649 | 0.372 | 0.32 | 0.322 | 0.382 | – | – | – | – | 0.746 | 0.646 | 0.688 | 0.383 | 0.303 | 0.302 | 0.271 | 0.286
19 | SW 900 | 0.488 | – | 0.469 | 0.455 | – | – | – | – | – | – | – | – | 0.755 | – | 1.25 | 0.775 | 0.512 | – | 0.67 | 0.593
